Data taken from patent US10770169B2, “Method of providing a treatment to a subject based on a dynamic pathway map” (THE REGENTS OF THE UNIVERSITY OF CALIFORNIA, priority 2010, dated 2020).

How the values were obtained:
[1] = tested on: panel of 55 breast cancer cell lines; test: Cell growth inhibition assay (Cell Titer Glo, 72 h, 9 doses; GI50, TGI, LC50); type: cell-based, human; settings: value is the negative log10 of mol/L
[2] = tested on: luminal, basal, claudin-low and ERBB2AMP breast cancer cell lines; test: Associations of clinically relevant subtypes and response (non-parametric ANOVA or t-test on GI50 ranks); type: cell-based, human; settings: Table 6; most sensitive subtype, FDR p<0.20
How it was run: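 Significance was set at FDR p<0.20 after combining p-values across three test sets. Subtype–response associations came from rank-based non-parametric ANOVA or t-tests on GI50. For three-class comparisons, post-hoc tests of each group against the rest identified the most sensitive group, with FDR correction.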

CC(/C=C/C(=O)NO)=C\[C@@H](C)C(=O)c1ccc(N(C)C)cc1 [Trichostatin A] gave a GI50 ([1]; 600MPE cell line, censored GI50 values) of 5.18, a GI50 ([1]; AU565 cell line, censored GI50 values) of 5.43 and a GI50 ([1]; BT20 cell line, censored GI50 values) of 4.81. It also gave a GI50 ([1]; BT474 cell line, censored GI50 values) of 5.00, a GI50 ([1]; BT483 cell line, censored GI50 values) of 5.00 and a GI50 ([1]; BT549 cell line, censored GI50 values) of 5.13. It also gave a GI50 ([1]; CAMA1 cell line, censored GI50 values) of 5.57, a GI50 ([1]; HCC38 cell line, censored GI50 values) of 5.22 and a GI50 ([1]; HCC70 cell line, censored GI50 values) of 4.84. It also gave a GI50 ([1]; HCC202 cell line, censored GI50 values) of 6.04, a GI50 ([1]; HCC1143 cell line, censored GI50 values) of 4.77 and a GI50 ([1]; HCC1187 cell line, censored GI50 values) of 5.32. It also gave a GI50 ([1]; HCC1395 cell line, censored GI50 values) of 4.50, a GI50 ([1]; HCC1419 cell line, censored GI50 values) of 4.85 and a GI50 ([1]; HCC1428 cell line, censored GI50 values) of 5.73. For the same compound, the GI50 ([1]; HCC1500 cell line, censored GI50 values) was 4.82, the GI50 ([1]; HCC1806 cell line, censored GI50 values) was 4.97 and the GI50 ([1]; HCC1937 cell line, censored GI50 values) was 4.82. The GI50 ([1]; HCC1954 cell line, censored GI50 values) was 4.95, the GI50 ([1]; HCC2185 cell line, censored GI50 values) was 4.79 and the GI50 ([1]; HCC3153 cell line, censored GI50 values) was 4.62. For the same compound, the GI50 ([1]; LY2 cell line, censored GI50 values) was 4.86, the GI50 ([1]; MCF7 cell line, censored GI50 values) was 5.16 and the GI50 ([1]; MDAMB134VI cell line, censored GI50 values) was 5.17. For the same compound, the GI50 ([1]; MDAMB157 cell line, censored GI50 values) was 4.68, the GI50 ([1]; MDAMB175VII cell line, censored GI50 values) was 5.23 and the GI50 ([1]; MDAMB231 cell line, censored GI50 values) was 5.26. It also gave a GI50 ([1]; MDAMB361 cell line, censored GI50 values) of 5.09, a GI50 ([1]; MDAMB415 cell line, censored GI50 values) of 4.90 and a GI50 ([1]; MDAMB436 cell line, censored GI50 values) of 4.67. The GI50 ([1]; MDAMB453 cell line, censored GI50 values) was 5.23, the GI50 ([1]; MDAMB468 cell line, censored GI50 values) was 4.85 and the GI50 ([1]; SKBR3 cell line, censored GI50 values) was 5.21. The GI50 ([1]; SUM52PE cell line, censored GI50 values) was 5.57, the GI50 ([1]; SUM149PT cell line, censored GI50 values) was 5.14 and the GI50 ([1]; SUM159PT cell line, censored GI50 values) was 5.23. For the same compound, the GI50 ([1]; SUM185PE cell line, censored GI50 values) was 4.76, the GI50 ([1]; SUM225CWN cell line, censored GI50 values) was 4.85 and the GI50 ([1]; SUM1315MO2 cell line, censored GI50 values) was 4.31. The GI50 ([1]; T47D cell line, censored GI50 values) was 5.44, the GI50 ([1]; UACC812 cell line, censored GI50 values) was 5.04 and the GI50 ([1]; UACC893 cell line, censored GI50 values) was 5.54. For the same compound, the GI50 ([1]; ZR75B cell line, censored GI50 values) was 5.30, the GI50 ([1]; ZR751 cell line, censored GI50 values) was 4.74 and the GI50 ([1]; cell line 600MPE) was 5.18. The GI50 ([1]; cell line AU565) was 5.43, the GI50 ([1]; cell line BT20) was 4.81 and the GI50 ([1]; cell line BT474) was 5.00. For the same compound, the GI50 ([1]; cell line BT483) was 5.00, the GI50 ([1]; cell line BT549) was 5.13 and the GI50 ([1]; cell line CAMA1) was 5.57. It also gave a GI50 ([1]; cell line HCC38) of 5.22, a GI50 ([1]; cell line HCC70) of 4.84 and a GI50 ([1]; cell line HCC202) of 6.04. For the same compound, the GI50 ([1]; cell line HCC1143) was 4.77, the GI50 ([1]; cell line HCC1187) was 5.32 and the GI50 ([1]; cell line HCC1395) was 4.50. The GI50 ([1]; cell line HCC1419) was 4.85, the GI50 ([1]; cell line HCC1428) was 5.73 and the GI50 ([1]; cell line HCC1500) was 4.82. It also gave a GI50 ([1]; cell line HCC1806) of 4.97, a GI50 ([1]; cell line HCC1937) of 4.82 and a GI50 ([1]; cell line HCC1954) of 4.95. For the same compound, the GI50 ([1]; cell line HCC2185) was 4.79, the GI50 ([1]; cell line HCC3153) was 4.62 and the GI50 ([1]; cell line LY2) was 4.86. It also gave a GI50 ([1]; cell line MCF7) of 5.16, a GI50 ([1]; cell line MDAMB134V) of 5.17 and a GI50 ([1]; cell line MDAMB157) of 4.68. It also gave a GI50 ([1]; cell line MDAMB175V) of 5.23, a GI50 ([1]; cell line MDAMB231) of 5.26 and a GI50 ([1]; cell line MDAMB361) of 5.09. For the same compound, the GI50 ([1]; cell line MDAMB415) was 4.90, the GI50 ([1]; cell line MDAMB436) was 4.67 and the GI50 ([1]; cell line MDAMB453) was 5.23. It also gave a GI50 ([1]; cell line MDAMB468) of 4.85, a GI50 ([1]; cell line SKBR3) of 5.21 and a GI50 ([1]; cell line SUM52PE) of 5.57. It also gave a GI50 ([1]; cell line SUM149PT) of 5.14, a GI50 ([1]; cell line SUM159PT) of 5.23 and a GI50 ([1]; cell line SUM185PE) of 4.76. It also gave a GI50 ([1]; cell line SUM225CWN) of 4.85, a GI50 ([1]; cell line SUM1315MO) of 4.31 and a GI50 ([1]; cell line T47D) of 5.44. The GI50 ([1]; cell line UACC812) was 5.04, the GI50 ([1]; cell line UACC893) was 5.54 and the GI50 ([1]; cell line ZR75B) was 5.30. For the same compound, the GI50 ([1]; cell line ZR751) was 4.74 and the Subtype specificity [2] was “Luminal”.
